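Assay format: 96-well plates, 48-hour exposure. TGI is the concentration that stops growth completely.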
Tests used:
Assay in all cases: DTP human tumour cell line panel, 48 h
A549 NSCLC = test system: A549 NSCLC
M19-MEL melanoma = test system: M19-MEL melanoma
ACHN renal = test system: ACHN renal
U251 CNS = test system: U251 CNS
M14 melanoma = test system: M14 melanoma
HCC-2998 colon = test system: HCC-2998 colon
SK-MEL-28 melanoma = test system: SK-MEL-28 melanoma
SK-OV-3 ovarian = test system: SK-OV-3 ovarian
SF-268 CNS = test system: SF-268 CNS
KM12 colon = test system: KM12 colon
RXF 393 renal = test system: RXF 393 renal
HCT-15 colon = test system: HCT-15 colon
SNB-75 CNS = test system: SNB-75 CNS
HOP-92 NSCLC = test system: HOP-92 NSCLC
DLD-1 colon = test system: DLD-1 colon
TK-10 renal = test system: TK-10 renal
SNB-78 CNS = test system: SNB-78 CNS
NCI-H522 lung = test system: NCI-H522 lung
CCRF-CEM leukemia = test system: CCRF-CEM leukemia
SNB-19 CNS = test system: SNB-19 CNS
SF-539 CNS = test system: SF-539 CNS
OVCAR-4 ovarian = test system: OVCAR-4 ovarian
UACC-62 melanoma = test system: UACC-62 melanoma
NCI-H226 lung = test system: NCI-H226 lung
COLO 205 colon = test system: COLO 205 colon
SW-620 colon = test system: SW-620 colon
OVCAR-3 ovarian = test system: OVCAR-3 ovarian
MOLT-4 leukemia = test system: MOLT-4 leukemia
SN12C renal = test system: SN12C renal
SR leukemia = test system: SR leukemia
HT29 colon = test system: HT29 colon
OVCAR-8 ovarian = test system: OVCAR-8 ovarian
IGROV1 ovarian = test system: IGROV1 ovarian
NCI-H23 lung = test system: NCI-H23 lung
SF-295 CNS = test system: SF-295 CNS
NCI-H460 lung = test system: NCI-H460 lung
LOX IMVI melanoma = test system: LOX IMVI melanoma
HL-60(TB) leukemia = test system: HL-60(TB) leukemia
LXFL 529 NSCLC = test system: LXFL 529 NSCLC
HOP-18 NSCLC = test system: HOP-18 NSCLC
UO-31 renal = test system: UO-31 renal
A498 renal = test system: A498 renal
UACC-257 melanoma = test system: UACC-257 melanoma
SK-MEL-5 melanoma = test system: SK-MEL-5 melanoma
OVCAR-5 ovarian = test system: OVCAR-5 ovarian
HOP-62 NSCLC = test system: HOP-62 NSCLC
EKVX NSCLC = test system: EKVX NSCLC
HCT-116 colon = test system: HCT-116 colon
K-562 leukemia = test system: K-562 leukemia
786-0 renal = test system: 786-0 renal
SK-MEL-2 melanoma = test system: SK-MEL-2 melanoma
MALME-3M melanoma = test system: MALME-3M melanoma
CAKI-1 renal = test system: CAKI-1 renal
DMS 114 small cell lung = test system: DMS 114 small cell lung
DMS 273 small cell lung = test system: DMS 273 small cell lung
KM20L2 colon = test system: KM20L2 colon
RPMI-8226 leukemia = test system: RPMI-8226 leukemia
XF 498 CNS = test system: XF 498 CNS

Measured: TGI

COc1ccccc1-n1c(C)nc2ccccc2c1=O
> 100 µM: A549 NSCLC | M19-MEL melanoma | ACHN renal | U251 CNS | M14 melanoma | HCC-2998 colon | SK-MEL-28 melanoma | SK-OV-3 ovarian | SF-268 CNS | KM12 colon | RXF 393 renal | HCT-15 colon | SNB-75 CNS | HOP-92 NSCLC | DLD-1 colon | TK-10 renal | SNB-78 CNS | NCI-H522 lung | CCRF-CEM leukemia | SNB-19 CNS | SF-539 CNS | OVCAR-4 ovarian | UACC-62 melanoma | NCI-H226 lung | COLO 205 colon | SW-620 colon | OVCAR-3 ovarian | MOLT-4 leukemia | SN12C renal | SR leukemia | HT29 colon | OVCAR-8 ovarian | IGROV1 ovarian | NCI-H23 lung | SF-295 CNS | NCI-H460 lung | LOX IMVI melanoma | HL-60(TB) leukemia | LXFL 529 NSCLC | HOP-18 NSCLC | UO-31 renal | A498 renal | UACC-257 melanoma | SK-MEL-5 melanoma | OVCAR-5 ovarian | HOP-62 NSCLC | EKVX NSCLC | HCT-116 colon | K-562 leukemia | 786-0 renal | SK-MEL-2 melanoma | MALME-3M melanoma | CAKI-1 renal | DMS 114 small cell lung | DMS 273 small cell lung | KM20L2 colon

O=[N+]([O-])c1nccn1COCCI
> 100 µM: A549 NSCLC | M19-MEL melanoma | ACHN renal | U251 CNS | M14 melanoma | SK-MEL-28 melanoma | SK-OV-3 ovarian | SF-268 CNS | RPMI-8226 leukemia | KM12 colon | HCT-15 colon | SNB-75 CNS | HOP-92 NSCLC | DLD-1 colon | TK-10 renal | XF 498 CNS | SNB-78 CNS | NCI-H522 lung | CCRF-CEM leukemia | SNB-19 CNS | SF-539 CNS | OVCAR-4 ovarian | UACC-62 melanoma | NCI-H226 lung | COLO 205 colon | SW-620 colon | OVCAR-3 ovarian | MOLT-4 leukemia | SN12C renal | SR leukemia | HT29 colon | OVCAR-8 ovarian | IGROV1 ovarian | NCI-H23 lung | SF-295 CNS | NCI-H460 lung | LOX IMVI melanoma | HL-60(TB) leukemia | LXFL 529 NSCLC | UO-31 renal | UACC-257 melanoma | SK-MEL-5 melanoma | OVCAR-5 ovarian | HOP-62 NSCLC | EKVX NSCLC | HCT-116 colon | K-562 leukemia | 786-0 renal | SK-MEL-2 melanoma | MALME-3M melanoma | CAKI-1 renal | DMS 114 small cell lung | DMS 273 small cell lung | KM20L2 colon

C=CCN1C2Cc3cc(OC)c(OC)cc3C1Cc1cc(OC)c(OC)cc12
> 100 µM: A549 NSCLC | ACHN renal | U251 CNS | M14 melanoma | HCC-2998 colon | SK-MEL-28 melanoma | SF-268 CNS | RPMI-8226 leukemia | KM12 colon | HCT-15 colon | SNB-75 CNS | DLD-1 colon | TK-10 renal | XF 498 CNS | SNB-78 CNS | NCI-H522 lung | CCRF-CEM leukemia | SNB-19 CNS | OVCAR-4 ovarian | SW-620 colon | OVCAR-3 ovarian | MOLT-4 leukemia | SN12C renal | HT29 colon | OVCAR-8 ovarian | NCI-H23 lung | SF-295 CNS | NCI-H460 lung | LXFL 529 NSCLC | UO-31 renal | A498 renal | UACC-257 melanoma | SK-MEL-5 melanoma | OVCAR-5 ovarian | HOP-62 NSCLC | EKVX NSCLC | K-562 leukemia | 786-0 renal | SK-MEL-2 melanoma | MALME-3M melanoma | CAKI-1 renal | KM20L2 colon

CC1=C(O)C(=O)C2C(=O)C1C(C)C2c1ccc(C)cc1 (stereo not given)
> 100 µM: A549 NSCLC | M19-MEL melanoma | ACHN renal | U251 CNS | M14 melanoma | HCC-2998 colon | SK-MEL-28 melanoma | SK-OV-3 ovarian | SF-268 CNS | RPMI-8226 leukemia | KM12 colon | RXF 393 renal | HCT-15 colon | SNB-75 CNS | HOP-92 NSCLC | DLD-1 colon | TK-10 renal | XF 498 CNS | SNB-78 CNS | NCI-H522 lung | CCRF-CEM leukemia | SNB-19 CNS | SF-539 CNS | OVCAR-4 ovarian | UACC-62 melanoma | COLO 205 colon | SW-620 colon | OVCAR-3 ovarian | MOLT-4 leukemia | SR leukemia | HT29 colon | OVCAR-8 ovarian | IGROV1 ovarian | NCI-H23 lung | SF-295 CNS | NCI-H460 lung | LOX IMVI melanoma | LXFL 529 NSCLC | UO-31 renal | A498 renal | UACC-257 melanoma | SK-MEL-5 melanoma | OVCAR-5 ovarian | HOP-62 NSCLC | EKVX NSCLC | K-562 leukemia | 786-0 renal | SK-MEL-2 melanoma | MALME-3M melanoma | CAKI-1 renal | DMS 273 small cell lung | KM20L2 colon

C=CCOC(C)n1c(C)c(Br)c(=O)[nH]c1=O (stereo not given)
> 100 µM: A549 NSCLC | M19-MEL melanoma | ACHN renal | U251 CNS | HCC-2998 colon | SK-MEL-28 melanoma | SK-OV-3 ovarian | SF-268 CNS | KM12 colon | RXF 393 renal | HCT-15 colon | SNB-75 CNS | HOP-92 NSCLC | DLD-1 colon | TK-10 renal | XF 498 CNS | NCI-H522 lung | CCRF-CEM leukemia | SNB-19 CNS | SF-539 CNS | UACC-62 melanoma | NCI-H226 lung | COLO 205 colon | SW-620 colon | OVCAR-3 ovarian | MOLT-4 leukemia | SN12C renal | SR leukemia | HT29 colon | OVCAR-8 ovarian | IGROV1 ovarian | NCI-H23 lung | SF-295 CNS | NCI-H460 lung | LOX IMVI melanoma | HL-60(TB) leukemia | LXFL 529 NSCLC | UO-31 renal | A498 renal | UACC-257 melanoma | SK-MEL-5 melanoma | OVCAR-5 ovarian | EKVX NSCLC | HCT-116 colon | 786-0 renal | SK-MEL-2 melanoma | MALME-3M melanoma | CAKI-1 renal | DMS 114 small cell lung | DMS 273 small cell lung | KM20L2 colon

— PubChem BioAssay (NCI)
